{"source": "paper PMC6364417", "about": "“Kinase inhibitor library screening identifies synergistic drug combinations effective in sensitive and resistant melanoma cells” (Journal of Experimental & Clinical Cancer Research : CR, 2019)", "assay_in_all_cases": "Kinase inhibitor library screening, PrestoBlue cell viability, 1 or 10 μM, 72 h", "key": {"[1]": {"system": "501Mel-GP cells (Dabrafenib-resistant)", "conditions": "72 h; for viability at 1 µM / viability at 10 µM: Homo sapiens; for viability at 1 µM: read-out: cell viability, 501Mel GP, 1μΜ; for viability at 10 µM: read-out: cell viability, 501Mel GP, 10μΜ", "procedure": "(§1) After 72 h of treatment, cell viability was assessed using the PrestoBlue Cell Viability Reagent (ThermoFisher Scientific). Measurements were performed with the CLARIOstar Monochromator microplate reader (BMG Labtech).\n(§2) Kinase inhibitor library screening. […] Each cell line was treated in its sensitive form (parental), and also as 2 resistant derivatives, which were made resistant to either Vemurafenib (XP) or Dabrafenib (GP). Drugs were added at 2 different concentrations, 1 and 10 μM, for 72 h and cell viability was assessed using the PrestoBlue Cell Viability assay. Results are depicted as % viability compared to untreated cells. Each cell line was analyzed at least in duplicate. […] (XLSX 95 kb)"}, "[2]": {"system": "IGR37-XP cells (Vemurafenib-resistant)", "conditions": "for viability at 1 µM / viability at 10 µM: Homo sapiens, IGR-37, 72 h; for viability at 1 µM: read-out: cell viability, IGR37 XP, 1μΜ; for viability at 10 µM: read-out: cell viability, IGR37 XP, 10μΜ", "procedure": "as §1, §2"}, "[3]": {"system": "501Mel-XP cells (Vemurafenib-resistant)", "conditions": "72 h; for viability at 1 µM / viability at 10 µM: Homo sapiens; for viability at 1 µM: read-out: cell viability, 501Mel XP, 1μΜ; for viability at 10 µM: read-out: cell viability, 501Mel XP, 10μΜ", "procedure": "as §1, §2"}, "IGR37 cells (parental)": {"system": "IGR37 cells (parental)", "conditions": "for viability at 1 µM / viability at 10 µM: Homo sapiens, IGR-37, 72 h; for viability at 1 µM: read-out: cell viability, IGR37 Parental, 1μΜ; for viability at 10 µM: read-out: cell viability, IGR37 Parental, 10μΜ", "procedure": "as §1, §2"}, "[4]": {"system": "A375-XP cells (Vemurafenib-resistant)", "conditions": "for viability at 1 µM / viability at 10 µM: Homo sapiens, A-375, 72 h; for viability at 1 µM: read-out: cell viability, A375 XP, 1μΜ; for viability at 10 µM: read-out: cell viability, A375 XP, 10μΜ", "procedure": "as §1, §2"}, "501Mel cells (parental)": {"system": "501Mel cells (parental)", "conditions": "72 h; for viability at 1 µM / viability at 10 µM: Homo sapiens; for viability at 1 µM: read-out: cell viability, 501Mel Parental, 1μΜ; for viability at 10 µM: read-out: cell viability, 501Mel Parental, 10μΜ", "procedure": "as §1, §2"}, "[5]": {"system": "IGR37-GP cells (Dabrafenib-resistant)", "conditions": "for viability at 1 µM / viability at 10 µM: Homo sapiens, IGR-37, 72 h; for viability at 1 µM: read-out: cell viability, IGR37 GP, 1μΜ; for viability at 10 µM: read-out: cell viability, IGR37 GP, 10μΜ", "procedure": "as §1, §2"}, "[6]": {"system": "A375-GP cells (Dabrafenib-resistant)", "conditions": "for viability at 1 µM / viability at 10 µM: Homo sapiens, A-375, 72 h; for viability at 1 µM: read-out: cell viability, A375 GP, 1μΜ; for viability at 10 µM: read-out: cell viability, A375 GP, 10μΜ", "procedure": "as §1, §2"}, "A375 cells (parental)": {"system": "A375 cells (parental)", "conditions": "for viability at 1 µM / viability at 10 µM: Homo sapiens, A-375, 72 h; for viability at 1 µM: read-out: cell viability, A375 Parental, 1μΜ; for viability at 10 µM: read-out: cell viability, A375 Parental, 10μΜ", "procedure": "as §1, §2"}}, "data": [{"smiles": "C#Cc1cccc(Nc2ncnc3cc(OCCOC)c(OCCO)cc23)c1", "note": "[OSI-420 (Desmethyl Erlotinib)]", "values": [{"measurement": "cell viability, 501Mel GP, 1μΜ", "setting": "[1]; 501Mel GP, 1μΜ, in %", "value": 106.0}, {"measurement": "cell viability, 501Mel GP, 10μΜ", "setting": "[1]; 501Mel GP, 10μΜ, in %", "value": 79.2}, {"measurement": "cell viability, IGR37 XP, 10μΜ", "setting": "[2]; IGR37 XP, 10μΜ, 72 h", "value": 45.3, "unit": "%"}, {"measurement": "cell viability, IGR37 XP, 1μΜ", "setting": "[2]; IGR37 XP, 1μΜ, 72 h, in %", "value": 83.7}, {"measurement": "cell viability, 501Mel XP, 1μΜ", "setting": "[3]; 501Mel XP, 1μΜ, in %", "value": 117.2}, {"measurement": "cell viability, 501Mel XP, 10μΜ", "setting": "[3]; 501Mel XP, 10μΜ, in %", "value": 44.4}, {"measurement": "cell viability, IGR37 Parental, 1μΜ", "setting": "IGR37 cells (parental); IGR37 Parental, 1μΜ, 72 h, in %", "value": 108.5}, {"measurement": "cell viability, IGR37 Parental, 10μΜ", "setting": "IGR37 cells (parental); IGR37 Parental, 10μΜ, 72 h, in %", "value": 104.1}, {"measurement": "cell viability, A375 XP, 10μΜ", "setting": "[4]; A375 XP, 10μΜ, 72 h, in %", "value": 79.2}, {"measurement": "cell viability, 501Mel Parental, 1μΜ", "setting": "501Mel cells (parental); 501Mel Parental, 1μΜ, in %", "value": 109.3}, {"measurement": "cell viability, 501Mel Parental, 10μΜ", "setting": "501Mel cells (parental); 501Mel Parental, 10μΜ, in %", "value": 100.2}, {"measurement": "cell viability, IGR37 GP, 10μΜ", "setting": "[5]; IGR37 GP, 10μΜ, 72 h", "value": 81.4, "unit": "%"}, {"measurement": "cell viability, IGR37 GP, 1μΜ", "setting": "[5]; IGR37 GP, 1μΜ, 72 h, in %", "value": 91.6}, {"measurement": "cell viability, A375 GP, 1μΜ", "setting": "[6]; A375 GP, 1μΜ, 72 h, in %", "value": 96.7}, {"measurement": "cell viability, A375 GP, 10μΜ", "setting": "[6]; A375 GP, 10μΜ, 72 h, in %", "value": 88.2}, {"measurement": "cell viability, A375 Parental, 10μΜ", "setting": "A375 cells (parental); A375 Parental, 10μΜ, 72 h, in %", "value": 54.9}]}, {"smiles": "Cc1cc(Nc2cc(CN3CCOCC3)c3nc(C)c(Cc4ccc(Cl)cc4F)n3n2)n[nH]1", "note": "[LY2784544]", "values": [{"measurement": "viability at 1 µM", "setting": "[1]", "value": 99.1, "unit": "%"}, {"measurement": "viability at 10 µM", "setting": "[1]", "value": 49, "unit": "%"}, {"measurement": "viability at 1 µM", "setting": "[2]", "value": 91.6, "unit": "%"}, {"measurement": "viability at 10 µM", "setting": "[2]", "value": 17.9, "unit": "%"}, {"measurement": "viability at 1 µM", "setting": "[3]", "value": 87.1, "unit": "%"}, {"measurement": "viability at 10 µM", "setting": "[3]", "value": 27.9, "unit": "%"}, {"measurement": "viability at 1 µM", "setting": "IGR37 cells (parental)", "value": 99.2, "unit": "%"}, {"measurement": "viability at 10 µM", "setting": "IGR37 cells (parental)", "value": 87, "unit": "%"}, {"measurement": "viability at 1 µM", "setting": "[4]", "value": 102, "unit": "%"}, {"measurement": "viability at 10 µM", "setting": "[4]", "value": 35.9, "unit": "%"}, {"measurement": "viability at 1 µM", "setting": "501Mel cells (parental)", "value": 89.9, "unit": "%"}, {"measurement": "viability at 10 µM", "setting": "501Mel cells (parental)", "value": 67.3, "unit": "%"}, {"measurement": "viability at 1 µM", "setting": "[5]", "value": 90.3, "unit": "%"}, {"measurement": "viability at 10 µM", "setting": "[5]", "value": 53.2, "unit": "%"}, {"measurement": "viability at 1 µM", "setting": "[6]", "value": 101, "unit": "%"}, {"measurement": "viability at 10 µM", "setting": "[6]", "value": 26.9, "unit": "%"}, {"measurement": "viability at 1 µM", "setting": "A375 cells (parental)", "value": 94.9, "unit": "%"}, {"measurement": "viability at 10 µM", "setting": "A375 cells (parental)", "value": 28.1, "unit": "%"}]}, {"smiles": "C[C@@H]1COC(Nc2ccc3ncnc(Nc4ccc(OCc5nccs5)c(Cl)c4)c3c2)=N1", "note": "[ARRY334543]", "values": [{"measurement": "viability at 1 µM", "setting": "[1]", "value": 101, "unit": "%"}, {"measurement": "viability at 10 µM", "setting": "[1]", "value": 86.4, "unit": "%"}, {"measurement": "viability at 1 µM", "setting": "[2]", "value": 71.6, "unit": "%"}, {"measurement": "viability at 10 µM", "setting": "[2]", "value": 11.7, "unit": "%"}, {"measurement": "viability at 1 µM", "setting": "[3]", "value": 118, "unit": "%"}, {"measurement": "viability at 10 µM", "setting": "[3]", "value": 57.2, "unit": "%"}, {"measurement": "viability at 1 µM", "setting": "IGR37 cells (parental)", "value": 102, "unit": "%"}, {"measurement": "viability at 10 µM", "setting": "IGR37 cells (parental)", "value": 85.9, "unit": "%"}, {"measurement": "viability at 1 µM", "setting": "[4]", "value": 107, "unit": "%"}, {"measurement": "viability at 10 µM", "setting": "[4]", "value": 85.8, "unit": "%"}, {"measurement": "viability at 1 µM", "setting": "501Mel cells (parental)", "value": 97.9, "unit": "%"}, {"measurement": "viability at 10 µM", "setting": "501Mel cells (parental)", "value": 87.3, "unit": "%"}, {"measurement": "viability at 1 µM", "setting": "[5]", "value": 89.4, "unit": "%"}, {"measurement": "viability at 10 µM", "setting": "[5]", "value": 33, "unit": "%"}, {"measurement": "viability at 1 µM", "setting": "[6]", "value": 101, "unit": "%"}, {"measurement": "viability at 10 µM", "setting": "[6]", "value": 83.2, "unit": "%"}, {"measurement": "viability at 1 µM", "setting": "A375 cells (parental)", "value": 103, "unit": "%"}, {"measurement": "viability at 10 µM", "setting": "A375 cells (parental)", "value": 89.3, "unit": "%"}]}, {"smiles": "COc1cc2c(Oc3ccc(NC(=O)C4(C(=O)Nc5ccc(F)cc5)CC4)cc3F)ccnc2cc1OCCCN1CCOCC1", "note": "[Foretinib (GSK1363089, XL880)]", "values": [{"measurement": "cell viability (kinase inhibitor library screening)", "setting": "[1]; 501Mel GP, 1μΜ", "value": 64.6, "unit": "%"}, {"measurement": "cell viability (kinase inhibitor library screening)", "setting": "[1]; 501Mel GP, 10μΜ", "value": -0.6, "unit": "%"}, {"measurement": "cell viability (kinase inhibitor library screening)", "setting": "[2]; IGR37 XP, 1μΜ, 72 h", "value": 81.8, "unit": "%"}, {"measurement": "cell viability (kinase inhibitor library screening)", "setting": "[2]; IGR37 XP, 10μΜ, 72 h", "value": 0.556, "unit": "%"}, {"measurement": "cell viability (kinase inhibitor library screening)", "setting": "[3]; 501Mel XP, 1μΜ", "value": 47.0, "unit": "%"}, {"measurement": "cell viability (kinase inhibitor library screening)", "setting": "[3]; 501Mel XP, 10μΜ", "value": -0.9, "unit": "%"}, {"measurement": "cell viability (kinase inhibitor library screening)", "setting": "IGR37 cells (parental); IGR37 Parental, 1μΜ, 72 h", "value": 85.9, "unit": "%"}, {"measurement": "cell viability (kinase inhibitor library screening)", "setting": "IGR37 cells (parental); IGR37 Parental, 10μΜ, 72 h", "value": 0.2, "unit": "%"}, {"measurement": "cell viability (kinase inhibitor library screening)", "setting": "[4]; A375 XP, 1μΜ, 72 h", "value": 75.2, "unit": "%"}, {"measurement": "cell viability (kinase inhibitor library screening)", "setting": "[4]; A375 XP, 10μΜ, 72 h", "value": 0.7, "unit": "%"}, {"measurement": "cell viability (kinase inhibitor library screening)", "setting": "501Mel cells (parental); 501Mel Parental, 1μΜ", "value": 84.1, "unit": "%"}, {"measurement": "cell viability (kinase inhibitor library screening)", "setting": "501Mel cells (parental); 501Mel Parental, 10μΜ", "value": 0.153, "unit": "%"}, {"measurement": "cell viability (kinase inhibitor library screening)", "setting": "[5]; IGR37 GP, 1μΜ, 72 h", "value": 91.3, "unit": "%"}, {"measurement": "cell viability (kinase inhibitor library screening)", "setting": "[5]; IGR37 GP, 10μΜ, 72 h", "value": 0.8, "unit": "%"}, {"measurement": "cell viability (kinase inhibitor library screening)", "setting": "[6]; A375 GP, 1μΜ, 72 h", "value": 67.2, "unit": "%"}, {"measurement": "cell viability (kinase inhibitor library screening)", "setting": "[6]; A375 GP, 10μΜ, 72 h", "value": 0.464, "unit": "%"}, {"measurement": "cell viability (kinase inhibitor library screening)", "setting": "A375 cells (parental); A375 Parental, 10μΜ, 72 h", "value": 0.654, "unit": "%"}, {"measurement": "cell viability (kinase inhibitor library screening)", "setting": "A375 cells (parental); A375 Parental, 1μΜ, 72 h", "value": 71.0, "unit": "%"}]}]}
